Measured values taken from article PMC11487760, “Cross-Species Applications of Peptide Substrate Reporters to Quantitative Measurements of Kinase Activity” (ACS Measurement Science Au, 2024).
Non-standard residues stand in square brackets, D forms with d. Residues, ends and D or L forms follow the SMILES beside them. *: point of attachment. 5FAM = O=C1OC2(c3ccc(O)cc3Oc3cc(O)ccc32)c2ccc(C(=O)*)cc21; 6FAM = O=C1OC2(c3ccc(O)cc3Oc3cc(O)ccc32)c2cc(C(=O)*)ccc21; NMeR = CN[C@@H](CCCNC(=N)N)C(=O)O; NMeA = CN[C@@H](C)C(=O)O

What was measured:
[1] = Degradation assay in freeze-thaw lysates, D. discoideum; format: in vitro ADME; settings: 10 μM reporter, 25 °C, CE-LIF
Experimental: (§1) Degradation assays were conducted as described previously.[38] Briefly, aliquots of vegetative cells were washed twice, resuspended in ice-cold phosphate buffered saline at a density of 2 × 10^8 cells/mL and lysed by three freeze–thaw cycles using liquid nitrogen. The resulting lysate was clarified by 5 min centrifugation at 15,000 × g, and the supernatant was stored at −80 °C. The total protein concentration was determined using a fluorescamine assay with a bovine serum albumin (BSA) calibration curve.[39] Briefly, three parts diluted lysate (or BSA standard) in 30 mM borate buffer (pH 9) and one part 3 mg/mL fluorescamine in acetone were incubated for 5 min in the dark at room temperature. The fluorescence at 475 nm was then measured using 390 nm excitation. Based on this assay, the lysate was diluted to a concentration of 3 mg/mL in phosphate buffered saline. The degradation reaction was run at 25 °C and initiated by addition of 10 μM reporter to the diluted lysate. At fixed time points, aliquots were removed, and the reaction was stopped by incubation for 4 min at 95 °C.
(§2) To study degradation kinetics, we fit the data for each full-length peptide to a first-order reaction model and determined the half-life for each peptide for three biological replicates (Figure 5b-d, Table 3). Degradation rates and half-lives varied widely between organisms and peptides; however, some general trends were apparent. For all peptides, degradation was much faster in T. thermophila than in D. discoideum. T. thermophila is known to produce and secrete cysteine proteases and is a large ([…]), fast-growing cell. […] Further characterization of protease expression in these strains may be helpful identifying the enzyme(s) primarily responsible for degradation of these reporters.

[2] = Degradation assay in freeze-thaw lysates, T. thermophila B2086.2; format: in vitro ADME; settings: freeze–thaw lysate of vegetative T. thermophila B2086.2 cells, 3 mg/mL total protein in PBS, no protease inhibitors, 10 μM reporter, 25 °C, CE-LIF, first-order fit, ± SD, 3 biological replicates
Experimental: as §1, §2

PKBA [3] = assay: Effect of LY294002 treatment on reporter phosphorylation in cAMP-stimulated D. discoideum; format: cell-based; settings: 15 μM LY294002 for 1 min before cAMP stimulation; lysed 15 s after stimulation; 1 h social development; all three reporters; n = 3 biological replicates
Experimental: (§3) Next, we tested pharmacological treatment of D. discoideum. We treated cells for 1 min with 15 μM LY294002, a PI3K inhibitor. LY294002 has been shown previously to reduce PKBA activity in D. discoideum.[53],[55]−[57] […] The magnitude of this effect was quite similar for all three peptides; percent phosphorylation of cAMP-stimulated cells decreased to 33–34% of the untreated phosphorylation levels upon LY294002 treatment.

PKBA [4] = settings: read-out: EC50 for PKBA in D. discoideum; cited from earlier work
Experimental: as §3

[5] = Degradation assay in freeze-thaw lysates, T. thermophila CU428.2; format: in vitro ADME; settings: T. thermophila strain CU428.2 freeze–thaw lysate, based on the first 5 min of each reaction; 3 mg/mL protein, 10 μM reporter, 25 °C, CE-LIF
Experimental: as §1
To study degradation kinetics, we fit the data for each full-length peptide to a first-order reaction model and determined the half-life for each peptide for three biological replicates (Figure 5b-d, Table 3). […]

[6] = system: intact human prostate cancer cells (LNCaP); settings: cited from earlier work
Experimental: (§4) These rates are much higher than rates obtained in intact human prostate cancer cells (LNCaP, 0.04 zmol pg^–1 s^–1)[6] and pancreatic cancer cell lines (0.02–0.1 zmol pg^–1 s^–1)[28],[50] with the same reporter. Our assays were conducted in lysates containing phosphatase inhibitors, which will increase the apparent activity of PKB by removing the effects of any opposing phosphatases. Additionally, higher phosphorylation rates may arise from differing expression levels of PKB ...

[7] = system: pancreatic cancer cell lines; settings: intact pancreatic cancer cell lines; cited from earlier work
Experimental: as §4

PHK5 [8] = assay: Phosphorylation of peptide substrate reporters in T. thermophila lysates (CE-LIF); format: biochemical; settings: lysates from T. thermophila 2 h into conjugation, 20–30 s after 2% proteose peptone; 5 μM reporter, 2 mM ATP, room temperature, lysis buffer with phosphatase and protease inhibitors; reactions with ≤10% total phosphorylation; MEKC CE-LIF
Experimental: (§5) For T. thermophila lysates, mating was induced by mixing equal cell numbers of B2086.2 and CU428.2 strains that had been starved for 16 h at 30 °C in unshaken Dryl’s buffer (2 mM phosphate buffer, 2 mM citrate, 1.5 mM CaCl2). Two hours after cells were mixed, microscopy was used to confirm that >75% of cells were paired. Samples were then lysed with an equal volume of ice-cold 2× lysis buffer, before and 30 s after addition of 20% proteose peptone stock to a final concentration of 2% or other stimuli as noted.
(§6) In addition to confirming that all three reporters were phosphorylated in lysates from both cell types, we also characterized the kinetics of the phosphorylation, which varied substantially between organisms. Using reactions with ≤10% total phosphorylation, we determined the phosphorylation rate for lysates from stimulated cells in units of zeptomoles of phosphorylated product per picogram of total protein per second (zmol pg^–1 s^–1; Table 2). […] For D. discoideum, B-5/I was the next most preferred substrate. This kinetic trend is similar to that observed in human cells. Crosstide and a truncated version of B-5/I have similar values for Vmax with human Akt1, but the KM value is about 5-fold lower for Crosstide.[25] The value of Vmax has not been determined for VI–B with Akt1, but its phosphorylation rate is known to be slower than that of B-5/I.[13]

PKBA [9] = assay: Phosphorylation of peptide substrate reporters in D. discoideum lysates (CE-LIF); format: biochemical; settings: lysates from chemotaxis-competent D. discoideum 20–30 s after 1 μM cAMP stimulation; 5 μM reporter, 2 mM ATP, 0.4–0.6 mg/mL protein, room temperature, lysis buffer with phosphatase and protease inhibitors; reactions with ≤10% total phosphorylation; MEKC CE-LIF
From the text: as §6

PHK5 [10] = format: cell-based; settings: mating T. thermophila treated 20 s with 1 μM stimulus (2% for proteose peptone) prior to lysis; 15 min incubation of Crosstide in lysate; n = 2–3 biological replicates
Experimental: as §5, with “Two hours after cells were mixed, microscopy was used to confirm that >75% of cells were paired.” left out
The protein concentrations of lysates were determined using the fluorescamine assay described above, and lysates were diluted to the same final concentration (0.4–0.6 mg/mL) in 1× lysis buffer. […] Phosphorylation reactions were conducted in kinase buffer (25 mM MOPS, pH 7.4, 20 mM magnesium chloride, 25 mM glycerophosphate, 1 mM DTT).[41] The peptide substrate reporter was added to a final concentration of 5 μM, and the reaction was started by addition of a final concentration of 2 mM ATP. The reaction was run at room temperature and stopped by the addition of CE run buffer. Negative control experiments were performed by substituting deionized water for ATP or denaturing the lysate with heat before the addition of peptide.
Samples were analyzed using micellar electrokinetic chromatography (MEKC) in a PA-800 Plus capillary electrophoresis instrument (Beckman Coulter). […] The same buffer was used for phosphorylation assays of Crosstide. […] For all VI–B assays, the run buffer was 100 mM borate, 15 mM SDS, pH 11.4. The capillary was 50 μm diameter bare silica, 21 cm effective length with an applied potential of 400 V/cm. […] Peak integration was performed using 32 Karat (v. 10.1) software.
Cells were treated with a final concentration of 1 μM stimulus for 20 s prior to lysis.

[11] = freeze–thaw lysate of vegetative D. discoideum cells, 3 mg/mL total protein in PBS, no protease inhibitors, first-order fit, ± SD, 3 biological replicates

## C[C@H](NC(=O)[C@H](C)NC(=O)[C@H](CCCNC(=N)N)NC(=O)[C@@H]1CCCN1C(=O)[C@H](CCCNC(=N)N)NC(=O)CNC(=O)c1ccc2c(c1)C1(OC2=O)c2ccc(O)cc2Oc2cc(O)ccc21)C(=O)N[C@H](C(=O)N[C@@H](Cc1ccccc1)C(=O)N[C@@H](C)C(=O)N[C@@H](CCC(=O)O)C(=O)NCC(N)=O)[C@@H](C)O [B-5/I] (6FAM-GRPRAATFAEG-NH2)
[1]; [11]
  half-life at 10 μM: 51 ± 4 min
[2]
  half-life at 10 μM: 12 ± 4 min

## C[C@H](NC(=O)[C@H](Cc1ccccc1)NC(=O)[C@H](CO)NC(=O)[C@H](CO)NC(=O)[C@@H](NC(=O)[C@H](CCCNC(=N)N)NC(=O)[C@@H]1CCCN1C(=O)[C@H](CCCNC(=N)N)NC(=O)CNC(=O)c1ccc2c(c1)C(=O)OC21c2ccc(O)cc2Oc2cc(O)ccc21)[C@@H](C)O)C(=O)N[C@@H](CCC(=O)O)C(=O)NCC(=O)O [Crosstide] (5FAM-GRPRTSSFAEG-OH)
[1]; [11]
  half-life at 10 μM: 117 ± 10 min
[2]
  half-life at 10 μM: 8 ± 1 min

## O=c1cc(N2CCOCC2)oc2c(-c3ccccc3)cccc12 [LY294002]
PKBA [3]
  percent phosphorylation of cAMP-stimulated cells, as % of the untreated phosphorylation levels: 33–34%
PKBA [4]
  EC50: 15 µM

## C[C@H](NC(=O)[C@H](CCCNC(=N)N)N(C)C(=O)[C@@H]1CCCN1C(=O)[C@H](CCCNC(=N)N)NC(=O)CNC(=O)c1ccc2c(c1)C1(OC2=O)c2ccc(O)cc2Oc2cc(O)ccc21)C(=O)N[C@@H](Cc1ccccc1)C(=O)N[C@H](C(=O)N[C@@H](Cc1ccccc1)C(=O)N(C)[C@@H](C)C(N)=O)[C@@H](C)O [VI–B] (6FAM-GRP[NMeR]AFTF[NMeA]-NH2)
[5]
  initial degradation rate in lysates: 5.1 ± 0.3 pmol mg^–1 s^–1
[6]
  phosphorylation rate: 0.04 zmol pg^–1 s^–1
[7]
  phosphorylation rate: 0.02–0.1 zmol pg^–1 s^–1
[1]; D. discoideum freeze–thaw lysate, based on the first 15 min of each reaction, pmol peptide per mg total protein per second, 3 mg/mL protein
  initial rate of fragmentation in lysates: 0.3 ± 0.1 pmol mg^–1 s^–1
[1]; cells or culture medium, freeze–thaw lysate of vegetative D. discoideum cells, 3 mg/mL total protein in PBS, no protease inhibitors, first-order fit, ± SD, 3 biological replicates
  half-life: 184 ± 65 min
PHK5 [8]
  phosphorylation rate: 4.1 ± 0.9 zmol pg^–1 s^–1
PKBA [9]
  phosphorylation rate: 1.4 ± 0.2 zmol pg^–1 s^–1
[2]; cells or culture medium
  half-life: 22 ± 4 min

## Nc1nc2c(ncn2[C@@H]2O[C@@H]3COP(=O)(O)O[C@H]3[C@H]2O)c(=O)[nH]1 [cGMP]
PHK5 [10]
  change in phosphorylation activity toward Crosstide after stimulus: None of these stimuli resulted in increased phosphorylation activity

## NCCc1c[nH]cn1 [histamine]
PHK5 [10]
  change in phosphorylation activity toward Crosstide after stimulus: None of these stimuli resulted in increased phosphorylation activity

## NCCc1c[nH]c2ccc(O)cc12 [serotonin]
PHK5 [10]
  change in phosphorylation activity toward Crosstide after stimulus: None of these stimuli resulted in increased phosphorylation activity

## concavalin A
PHK5 [10]
  change in phosphorylation activity toward Crosstide after stimulus: None of these stimuli resulted in increased phosphorylation activity

## insulin
PHK5 [10]
  change in phosphorylation activity toward Crosstide after stimulus: None of these stimuli resulted in increased phosphorylation activity
